Assay [1] concerns KG-1 human acute myeloid leukemia cells. Description: Cell viability assay of Promega, KG-1 cells. It is filed as cell-based. The settings on record: for IC50: Homo sapiens, cell viability; for Ratio (IC50-value of capecitabine/IC50-value of test compound): fold potency versus capecitabine. An excerpt: Using the cell viability assay of Promega, the following IC50-values were obtained against KG-1 human acute myeloid leukemia cells (Table 3). The nucleoside carbamate capecitabine (Xeloda®) is included for comparison).

The test system of assay [2] is human colon cancer HCT-116 cells. Description: HCT-116 xenograft test for in vivo oral anticancer activity. Further details: species or system mice. The settings on record: capecitabine 100 mg/kg vs 6a 25 mg/kg, oral. An excerpt:
This example provides a description of HCT-116 xenograft test for in vivo oral anticancer activity of 6a.
Forty athymic nude mice (NCr nude, female, 5-6 weeks old, 20-25 g, Taconic) were inoculated with 6×10^6 exponentially growing human colon cancer HCT-116 cells, 1:1 ratio with Matrigel in 100 microliter into the right flank. Over the following 10 days, tumors reached a volume of 70 to 130 mm^3. Tumor volume were caliper-measured and calculated as length×width×width/2. Thirty mice were randomly allocated into three groups: (1) vehicle control group, (2) 6a test group, and (3) capecitabine (Cayman Chemical Co.) positive control group, with 10 mice into each group. Dosing solutions of each were prepared and kept refrigerated during the course of the test. Each mouse was dosed daily by oral administration.
After starting the dosing, body weights and tumor size measurements were recorded twice weekly to the end of the test.

The target in assay [3] is T1, ribonucleotide reductase (RR) (Homo sapiens, UniProt P23921).
T1 sequence (P23921 1-792): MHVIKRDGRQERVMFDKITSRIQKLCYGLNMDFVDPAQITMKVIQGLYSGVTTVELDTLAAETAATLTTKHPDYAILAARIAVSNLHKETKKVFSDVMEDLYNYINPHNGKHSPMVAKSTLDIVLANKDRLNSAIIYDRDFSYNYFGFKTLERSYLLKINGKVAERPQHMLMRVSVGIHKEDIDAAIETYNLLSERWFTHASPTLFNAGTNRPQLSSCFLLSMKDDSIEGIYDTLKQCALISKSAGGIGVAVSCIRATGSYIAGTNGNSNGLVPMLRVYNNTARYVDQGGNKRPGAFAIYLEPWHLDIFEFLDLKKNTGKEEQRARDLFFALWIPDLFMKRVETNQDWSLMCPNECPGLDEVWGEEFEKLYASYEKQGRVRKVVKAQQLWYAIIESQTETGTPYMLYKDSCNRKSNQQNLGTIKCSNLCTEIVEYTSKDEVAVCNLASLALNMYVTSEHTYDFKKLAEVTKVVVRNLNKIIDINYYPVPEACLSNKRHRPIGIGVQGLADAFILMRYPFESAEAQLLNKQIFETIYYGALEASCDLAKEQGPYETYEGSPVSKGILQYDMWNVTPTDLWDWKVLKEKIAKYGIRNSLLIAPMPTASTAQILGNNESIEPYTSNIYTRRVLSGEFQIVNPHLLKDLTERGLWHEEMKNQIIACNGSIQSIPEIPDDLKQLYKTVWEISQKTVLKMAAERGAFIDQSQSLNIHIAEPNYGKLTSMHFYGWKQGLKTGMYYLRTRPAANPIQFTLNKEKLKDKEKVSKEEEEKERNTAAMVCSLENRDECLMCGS
T1 sequence (P31350 1-389 partner): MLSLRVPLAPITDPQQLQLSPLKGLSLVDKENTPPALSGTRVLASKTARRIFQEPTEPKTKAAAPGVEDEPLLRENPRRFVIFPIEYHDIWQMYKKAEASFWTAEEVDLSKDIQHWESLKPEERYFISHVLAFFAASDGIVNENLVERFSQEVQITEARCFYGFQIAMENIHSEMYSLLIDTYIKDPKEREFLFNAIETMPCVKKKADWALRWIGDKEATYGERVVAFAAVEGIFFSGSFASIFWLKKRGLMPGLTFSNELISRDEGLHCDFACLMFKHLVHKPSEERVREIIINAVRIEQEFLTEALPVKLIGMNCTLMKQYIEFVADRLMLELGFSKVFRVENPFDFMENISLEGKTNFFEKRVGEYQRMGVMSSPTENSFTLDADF
In words: Enzyme inhibition by intracellular metabolite: ribonucleotide reductase. The format is biochemical. The settings on record: major target; inactivation by covalent bond formation at the active site. An excerpt: (§1) Several intracellular targets of the present disclosure were identified as essential enzymes required for the biosynthesis and function of DNA. These enzymes are susceptible for inhibition by a multitude of cellular metabolites of the present disclosure, contributing to the observed cytotoxicity.
(§2) The inhibition of the enzyme targets, TS, RR, and MTase is irreversible, due to mechanism-based inactivation caused by the inhibitory metabolites. The molecular mechanism of the inactivation involves covalent bond formation with the sulfhydryl groups of the active site cysteine residues essential for enzyme activity (see Examples 6, 7 and 8).
F3dCDP acts as a suicide substrate of the enzyme forming a binary complex between the inhibitor and the enzyme via a covalent bond to the SH-group of the active site cysteine residue: […]

For assay [4], the target named is T2, deoxycytidylate deaminase (DCTD) (Homo sapiens, UniProt P32321).
T2 sequence (P32321 1-178): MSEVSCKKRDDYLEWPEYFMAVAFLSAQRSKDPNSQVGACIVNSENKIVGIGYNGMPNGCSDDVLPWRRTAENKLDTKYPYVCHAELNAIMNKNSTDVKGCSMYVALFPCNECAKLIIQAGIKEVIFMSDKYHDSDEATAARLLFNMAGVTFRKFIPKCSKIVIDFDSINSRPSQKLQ
In words: Enzyme inhibition by intracellular metabolite: deoxycytidylate deaminase. It is filed as biochemical. To be noted: minor target.
Excerpt: as §1
Intracellular esterase hydrolysis of the 5′-substituent of Formula I (R″=phosphorodiamidate), followed by cyclization leads to a cyclic phosphoester intermediate that collapses into a monophosphoramidate. Further hydrolysis by the phosphoramidase activity of HINT1 results in the formation of F3dCMP, the first intracellular phosphorylated metabolite of compounds of Formula I that serves as a substrate and competitive inhibitor of the enzyme dCMP deaminase, and is a precursor of all the other inhibitory nucleotides described above (see Table 1).

Assay [5] deals with T3, DNA polymerase alpha (Pol α) (Homo sapiens, UniProt P09884).
T3 sequence (P09884 1-1462): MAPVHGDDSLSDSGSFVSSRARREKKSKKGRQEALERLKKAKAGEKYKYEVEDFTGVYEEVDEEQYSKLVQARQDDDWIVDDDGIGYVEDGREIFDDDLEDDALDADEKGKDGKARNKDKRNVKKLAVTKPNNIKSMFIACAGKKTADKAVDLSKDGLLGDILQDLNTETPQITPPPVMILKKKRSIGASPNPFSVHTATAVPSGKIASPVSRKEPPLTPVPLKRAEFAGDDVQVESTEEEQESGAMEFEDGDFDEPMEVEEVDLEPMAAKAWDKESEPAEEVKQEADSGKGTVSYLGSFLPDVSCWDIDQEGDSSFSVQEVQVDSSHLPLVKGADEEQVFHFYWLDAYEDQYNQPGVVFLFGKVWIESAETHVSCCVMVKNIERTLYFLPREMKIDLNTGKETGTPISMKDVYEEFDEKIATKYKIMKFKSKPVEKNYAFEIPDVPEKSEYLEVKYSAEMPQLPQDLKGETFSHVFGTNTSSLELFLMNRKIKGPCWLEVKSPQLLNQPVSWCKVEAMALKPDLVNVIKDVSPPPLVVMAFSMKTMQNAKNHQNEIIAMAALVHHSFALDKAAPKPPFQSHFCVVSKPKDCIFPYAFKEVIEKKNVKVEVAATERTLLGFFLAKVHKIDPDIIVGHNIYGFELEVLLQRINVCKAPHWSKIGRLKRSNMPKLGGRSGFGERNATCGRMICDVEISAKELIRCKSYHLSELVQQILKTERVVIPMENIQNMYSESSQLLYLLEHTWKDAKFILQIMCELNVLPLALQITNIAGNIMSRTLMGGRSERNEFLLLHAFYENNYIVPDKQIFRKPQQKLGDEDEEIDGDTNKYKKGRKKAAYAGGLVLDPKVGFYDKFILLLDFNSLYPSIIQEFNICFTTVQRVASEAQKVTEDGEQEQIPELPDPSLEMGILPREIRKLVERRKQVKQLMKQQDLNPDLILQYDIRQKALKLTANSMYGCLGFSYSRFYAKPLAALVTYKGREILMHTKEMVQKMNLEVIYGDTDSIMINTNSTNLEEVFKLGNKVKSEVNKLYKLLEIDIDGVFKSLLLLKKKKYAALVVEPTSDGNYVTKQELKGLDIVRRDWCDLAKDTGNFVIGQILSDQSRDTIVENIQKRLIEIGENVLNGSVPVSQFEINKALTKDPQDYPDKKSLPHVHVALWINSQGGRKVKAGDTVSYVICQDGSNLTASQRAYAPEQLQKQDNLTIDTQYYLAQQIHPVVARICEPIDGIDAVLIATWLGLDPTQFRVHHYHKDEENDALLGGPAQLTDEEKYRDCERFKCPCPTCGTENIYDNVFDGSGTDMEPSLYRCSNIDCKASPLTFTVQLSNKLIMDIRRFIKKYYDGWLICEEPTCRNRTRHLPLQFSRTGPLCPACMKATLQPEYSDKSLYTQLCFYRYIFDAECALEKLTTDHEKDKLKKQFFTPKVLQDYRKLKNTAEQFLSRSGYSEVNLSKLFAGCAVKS
In words: Enzyme inhibition by intracellular metabolites: DNA polymerase alpha. It is filed as biochemical. The settings on record: major target; inhibition by DNA chain termination and/or DNA fragmentation.
Excerpt: as §1

The target of assay [6] is thymidylate synthase (TS) (Homo sapiens, UniProt P04818). Description: Enzyme inhibition by intracellular metabolite: thymidylate synthase. It is filed as biochemical. The settings on record: major target; inactivation by covalent bond formation at the active site.
Excerpt: as §1, §2
F3dUMP acts as a suicide substrate of the enzyme thymidylate synthase by forming a covalent ternary complex with the enzyme and the cofactor 5,10-methylenetetrahydrofolate. The binding of the inhibitor to the enzyme is by a covalent bond to the SH-group of the active site cysteine residue involved in catalysis: […]

Assay [7] relates to thymidine phosphorylase.

Sequence of thymidylate synthase (TS) (P04818 whole entry): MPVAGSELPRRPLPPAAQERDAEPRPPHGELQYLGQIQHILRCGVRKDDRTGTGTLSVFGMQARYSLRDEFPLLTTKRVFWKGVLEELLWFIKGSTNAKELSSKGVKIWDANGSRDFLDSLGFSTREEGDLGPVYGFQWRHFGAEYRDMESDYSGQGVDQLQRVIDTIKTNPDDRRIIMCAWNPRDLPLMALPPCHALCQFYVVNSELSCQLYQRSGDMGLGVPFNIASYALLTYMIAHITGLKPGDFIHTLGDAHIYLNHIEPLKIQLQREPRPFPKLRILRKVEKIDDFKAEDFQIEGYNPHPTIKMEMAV

Regarding `CCCCCOC(=O)Nc1nc(=O)n([C@@H]2O[C@H](C)[C@@H](O)[C@H]2O)cc1F` [Capecitabine, capecitabine, reference compound], in assay [1], it took 8.92 ± 1.54 µM to reach half-maximal inhibition (IC50) and the “Ratio (IC50-value of capecitabine/IC50-value of test compound)” value stood at 1. The “dose of capecitabine required for anticancer activity comparable to 6a, relative to dose of 6a” value in assay [2] is listed as “about 4 times”.

For `Nc1nc(=O)n([C@@H]2O[C@H](CO)[C@@H](O)C2(F)F)cc1F` [Compound 5, 2′-Deoxy-2′,2′,5-trifluorocytidine], in assay [1], the IC50 (commonly the concentration at which inhibition is half-maximal) stood at 0.0341 ± 0.00527 µM and the “Ratio (IC50-value of capecitabine/IC50-value of test compound)” value came out at 253.

Take `Nc1nc(=O)n([C@@H]2O[C@H](COP(=O)(O)OP(=O)(O)O)[C@@H](O)C2(F)F)cc1F` [Compound F3dCDP, 2′,2′,5-trifluorodeoxycytidine diphosphate]: in assay [3], the “Reversibility of inhibition of RR” value is on record as “Irreversible*”.

In the case of `Nc1nc(=O)n([C@@H]2O[C@H](COP(=O)(O)O)[C@@H](O)C2(F)F)cc1F` [Compound F3dCMP, 2′,2′,5-trifluorodeoxycytidine monophosphate], the “Reversibility of inhibition of DCTD” value in assay [4] is recorded as “reversible”.

On to `Nc1nc(=O)n([C@@H]2O[C@H](COP(=O)(O)OP(=O)(O)OP(=O)(O)O)[C@@H](O)C2(F)F)cc1F` [Compound F3dCTP, 2′,2′,5-trifluorodeoxycytidine triphosphate], for which the “Reversibility of inhibition of Pol α” value in assay [5] is “Irreversible**”.

Take `O=c1[nH]c(=O)n([C@@H]2O[C@H](COP(=O)(O)O)[C@@H](O)C2(F)F)cc1F` [Compound F3dUMP, 2′,2′,5-trifluorodeoxyuridine monophosphate]: the “Reversibility of inhibition of TS” value in assay [6] is reported as “Irreversible*”.

As to `O=c1[nH]c(=O)n([C@@H]2O[C@H](COP(=O)(O)OP(=O)(O)OP(=O)(O)O)[C@@H](O)C2(F)F)cc1F` [Compound F3dUTP, 2′,2′,5-trifluorodeoxyuridine triphosphate], the “Reversibility of inhibition of Pol α” value in assay [5] is given as “Irreversible**”.

For the molecule `O=c1[nH]c(=O)n([C@H]2C[C@H](O)[C@@H](CO)O2)cc1C(F)(F)F` [Compound F3dUrd], in assay [7], the “substrate activity for thymidine phosphorylase (cleavage to produce FU)” value is recorded as “did not serve as a substrate for thymidine phosphorylase”.

Consider `O=c1[nH]c(=O)n([C@H]2C[C@H](O)[C@@H](CO)O2)cc1F` [Floxuridine, reference compound], for which, in assay [7], the “substrate activity for thymidine phosphorylase (cleavage to produce FU)” value is “rapidly cleaved by thymidine phosphorylase to produce FU”.

The values are drawn from patent publication US10751358B2, “Multitargeted nucleoside derivatives” (priority 2017, dated 2020).
